Data reported in patent US12187688B2, “Crystal form of tetramethylpyrazine nitrone, preparation method and use thereof” (GUANGZHOU MAGPIE PHARMACEUTICALS CO., LTD., priority 2019, dated 2025).
“And” between values parts separate entries of the source, which are not always exact repeats. Identical values can stand only once. Like-named read-outs stand apart in the source and are kept apart here. Blank lines part the entries; values can stand above or below the compound they belong to.

Experiments:
[1] = pharmacokinetic study in the cerebrospinal fluid of cynomolgus monkey; assay type: in vivo; settings: plasma, iv, 30 mg/kg, 10 min after the second administration, 30 mg/kg i.v., read-out: concentration of the drug in plasma
[2] = as above; assay type: in vivo
Experimental: The pharmacodynamic study in cynomolgus monkey animal model of cerebral stroke and also the pharmacokinetic study of the crystal form A of TBN in the cerebrospinal fluid of cynomolgus monkey were carried out. 10 min, 30 min, 60 min, and 120 min after the second administration (30 mg/kg, 6 hrs after the first intravenous administration of 30 mg/kg), 0.5 ml of cerebrospinal fluid was collected for pharmacokinetic test.

[3] = in vitro cell experiments (effective protection concentration); assay type: cell-based
[4] = distribution in tissues after intravenous administration to SD rats; assay type: in vivo; settings: 30 mg/kg i.v.
Experimental: SD rats were given the crystal form A of TBN at a dose of 30 mg/kg by intravenous injection and the distribution of the crystal form A of TBN in various tissues was investigated.

[5] = Test of stability against cold/heat treatment; assay type: physicochemical
Experimental: (4) The crystal form A was cooled to −55° C., and then heated to 25° C.
(5) The crystal form A was heated to 110° C. (before the decomposition point), and then cooled to 25° C. to obtain a yellow oily liquid.
(6) The TBN dihydrate was heated to 110° C. (before the decomposition point), and then cooled to 25° C. to obtain a yellow oily liquid.

[6] = Tableting test; assay type: physicochemical; settings: 2 tons for 2 min
Experimental: (3) The crystal form A and the TBN dihydrate were tableted under a pressure of 2 tons for 2 min. The tablets thus obtained were analyzed by XRPD.

[7] = Polymorph transformation test of suspension; assay type: physicochemical; settings: petroleum ether, room temperature, 7 days
Experimental: (1) The crystal form A of TBN was beaten in petroleum ether (1.0 mL) at room temperature for 7 days, and then the suspension was centrifuged, and the solid sample was collected for characterization by XRPD.

[8] = Test of stability against mechanical treatment (grinding); assay type: physicochemical; settings: ground for 10 min
Experimental: (2) The crystal form A of TBN and the TBN dihydrate were ground for 10 min receptively, and the treated samples were analyzed by XRPD.

[9] = Solubility in solvents; assay type: physicochemical
[10] = Test of influence of acceleration; assay type: physicochemical

concentration at 10 min [1]: 195 µM | Drug concentration in cerebrospinal fluid ([2]; 10 min after second intravenous 30 mg/kg dose, individual animals, 30 mg/kg): 33700 ng/mL and 34300 ng/mL | Drug concentration in cerebrospinal fluid ([2]; 30 min after second intravenous 30 mg/kg dose, individual animals, 30 mg/kg): 32200 ng/mL and 25100 ng/mL | Drug concentration in cerebrospinal fluid ([2]; 60 min after second intravenous 30 mg/kg dose, individual animals, 30 mg/kg): 25300 ng/mL and 20000 ng/mL | concentration at 10 min ([2]; cerebrospinal fluid, iv, 30 mg/kg, 10 min after second intravenous 30 mg/kg dose, individual animals, read-out: Drug concentration in cerebrospinal fluid): 48800 ng/mL | concentration at 10 min ([2]; cerebrospinal fluid, iv, 30 mg/kg, 10 min after the second administration, 30 mg/kg i.v., read-out: concentration of TBN in the cerebrospinal fluid): 176 µM | concentration at 30 min ([2]; cerebrospinal fluid, iv, 30 mg/kg, 30 min after second intravenous 30 mg/kg dose, individual animals, read-out: Drug concentration in cerebrospinal fluid): 41100 ng/mL | concentration at 60 min ([2]; cerebrospinal fluid, iv, 30 mg/kg, 60 min after second intravenous 30 mg/kg dose, individual animals, read-out: Drug concentration in cerebrospinal fluid): 27500 ng/mL | accumulation in the detected tissues [4]: does not tend to accumulate | time to clearance from the tissues and plasma [4]: ≤ 24 h | concentration in the brain tissue relative to plasma concentration ([4]; 0.25 hrs after administration): 0.6-0.7 time the plasma concentration | concentration in the brain tissue relative to plasma concentration ([4]; after 4 hrs): 0.8-1.1 times the plasma concentration | clearance from brain tissue ([4]; at 24 hrs): completely cleared | tissue distribution ([4]; female and male): rapid and widespread distribution
Structure (SMILES): Cc1nc(C)c(/C=[N+](\[O-])C(C)(C)C)nc1C [TBN, (Z)-2-methyl-N-((3,5,6-trimethylpyrazin-2-yl)methylene)propan-2-amine oxide]
Drug concentration in cerebrospinal fluid ([2]; 120 min after second intravenous 30 mg/kg dose, individual animals, 30 mg/kg): 16500 ng/mL and 14300 ng/mL and 7800 ng/mL | effective protection concentration [3]: 30 µM

crystal form by XRPD after thermal treatment ([5]; heated to 110° C., cooled to 25° C., solid precipitated after stirring): characterized by XRPD as crystal form A | polymorph transformation after tableting (XRPD) [6]: do not undergo polymorph transformation | crystal form by XRPD after suspension beating [7]: still crystal form A | crystal form (XRPD) after grinding [8]: no change | solubility ([9]; most solvents (acetonitrile, methanol, ethanol, acetone, ethyl acetate)): readily soluble | solubility ([9]; water): very soluble | crystal form by XRPD after acceleration ([10]; 7 days at 40° C. and RH=75%): shows crystal form A | stability in heat treatment, mechanical treatment and acceleration ([10]; acceleration (50° C., 75% RH)): stable
Structure (SMILES): Cc1nc(C)c(/C=[N+](\[O-])C(C)(C)C)nc1C [crystal form A of TBN, (Z)-2-methyl-N-((3,5,6-trimethylpyrazin-2-yl)methylene)propan-2-amine oxide]
blood-brain barrier penetration ([2]; 30 mg/kg i.v.): penetrate through the blood-brain barrier | polymorph transformation after cooling treatment ([5]; cooled to −55° C., then heated to 25° C.): does not undergo polymorph transformation
